{"source": "patent US8735624B2", "about": "“Polymorphic form of CHDMAPP, method of preparation thereof, and pharmaceutical composition comprising same” (Innate Pharma, priority 2008, dated 2014)", "key": {"[1]": {"experiment": "stability of CHDMAPP in solution in water", "assay_type": "physicochemical", "conditions": "in solution in water at 5% in weight, 55° C.", "excerpt": "The crystalline phase thus provides a dramatic improvement of the stability and of the storage capabilities of the drug product."}, "[2]": {"test_system": "γδ T cells", "conditions": "activator of γδ T cells; times higher than BrHPP; cited from earlier work"}, "[3]": {"experiment": "pKa of the acidic functions", "assay_type": "physicochemical", "excerpt": "Each of these acidic functions can be coupled with a cation. Therefore, three stoichiometries of sodium salts of CHDMAPP may be prepared: A monosodium salt, a disodium salt and a trisodium salt."}, "[4]": {"experiment": "DVS hygroscopicity and moisture measurements", "assay_type": "physicochemical", "conditions": "result in words", "experimental": "Moisture sorption isotherms of the crystalline phases were obtained by using a DVS-1 automated water sorption analyzer (Surface Measurements Systems, Alperton, Middlesex, United Kingdom). The reference material was an empty glass pan and the total gas flow was 200 sccm.min^−1 (Standard Cubic Centimeters per minute). Temperature of analysis was 20° C. For each measurement, precisely ca. 15 mg of the sample were weighed in a glass pan beforehand allowed for the tare, then placed in the analyzer.\nAs a first stage, dry nitrogen (0% R.H) was applied until constant weight of the sample in order to eliminate adsorbed or absorbed water (potential dehydration). Then, mass variations were recorded while R.H. was increased by steps of 10% R.H. The automated analyzer was allowed to start the following step as soon as the mass variation of the sample was less than 5.10^−4 mg.min^−1. The upper limit was adjusted below the deliquescence of the compound and never exceeded 90% R.H.\nDVSWin (v 2.18) was used as control and data collection software whereas data processing was performed by using DVS Standard Analysis Suite (v 4.3).\nFurther parameters used in DVS procedures are as follows:\nProtocole Dynamic Vapor Sorption/Appareil ‘Surface Measurements Systems)=\nAutomated Water Sorption Analyzer’/model: DVS−1\nAnalysis method: • step mode, • Temperature: 20° C. • step dm/dt<0.0005 (mg/min) • First stage R.H.=0% • Last Stage R.H.=90% • Minimum Stage: 20 min • Maximum Stage: 120 min • Total Gas Flow: 200 • Nitrogen: 200 Bars, H2O<3 ppm, O2<2 ppm, Réf. Nitrogen N50 B50*0 Software—data collection and data processing: • DVSWin v2.18 (control software), • DVS Standard Analysis Suite v4.3 (analysis software).]"}, "[5]": {"experiment": "solid phase stability on storage (XRPD)", "assay_type": "physicochemical", "conditions": "for crystalline structure after storage (XRPD): stored 3 months at 40° C., 75% RH", "experimental": "X-Ray Powder Diffraction measurements were carried out by using a SIEMENS D5005 diffractometer (Bruker analytical X-Ray Systems, D-76187 Karlsruhe, Germany) with a Bragg Brentano geometry, in theta-theta reflection mode. The instrument is equipped with a X-Ray tube (copper anticathode, 40 kV, 30 mA, Kα1 radiation: 1.5406 Å, Kα2 radiation: 1.5444 Å), a nickel filter and a scintillation detector. The diffraction patterns were collected by steps of 0.04° (2-theta) over the angular range 3°-30°, with a counting time of 4 s per step. No internal standard was used but a sample of quartz was analyzed as an external standard. The temperature of the sample was either the room temperature or accurately monitored when heating was required. DIFFRAC PLUS Edit Job software (v. 2.00) was used as control software and data processing was performed by using the Eva software (v. 9.0 and v. 10.0)."}, "[6]": {"experiment": "TG/DSC thermal stability", "assay_type": "physicochemical", "conditions": "TGA-DSC", "experimental": "The stability range was assessed using Differential Scanning calorimetry (DSC), using a Netzsch STA 449C apparatus, as is described in detail hereinafter, and having a standard deviation of ±0.5° C. The person skilled in the art will appreciate that alternative readings of the melting point may result from the use of other types of DSC equipment and/or the use of other system under conditions different to those described below.\nTG/DSC measurements were carried out by using a NETZSCH STA 449C Jupiter Thermogravimetric Analyzer (NETZSCH, D-95100 Selb, Germany) equipped with a low temperature furnace. The purge gas used was helium (gas flow=50 mL/min) and the reference material was an empty aluminum pan without cap. The samples were weighed in open aluminum pans, and then placed in the analyzer. The analyses were performed within various temperature ranges using a 2°.min^−1 heating rate. PROTEUS software was used for the acquisition and data processing (v. 4.7.0)."}, "[7]": {"experiment": "ICH stability testing (chemical purity by HPAEC)", "assay_type": "physicochemical", "conditions": "closed glass vials", "experimental": "The chemical purity of phosphoesters (including the isomeric purity for geometric isomers) is determined using High Performance Anion-Exchange Chromatography (HPAEC) with suppressed conductivity detection. The HPAEC device comprises a DIONEX DX600 system (DIONEX Corporation, Sunnyvale Calif., USA) connected to computer loaded with DIONEX Chromeleon® chromatography software. A DIONEX CD25 conductivity detector is used with an anion self regenerating suppressor (ASRS®-ultra II-4 mm), which is set to either auto-suppression mode or external water mode. The HPAEC column used is a DIONEX Ion Pac® AS11 column (4×250 mm) equipped with an AG11 guard column (4×50 mm). In this procedure, phosphoesters are eluted (as anionic form) from the anion exchange column with a sodium or potassium hydroxide step gradient.\nStability tests of CHDMAPP-Na2,1H2O have been conducted according to ICH guideline Q7a, Section 19.11, under various storage conditions: 5° C., and 25° C./60% RH, both in closed glass vials. Purity has been assessed at regular time intervals (t0, 1, 3, 6 and 9 months) by HPAEC using a Dionex Ion Pac AS11, 4.0×250 mm column and a Dionex Ion Pac AG11, […] and by eluting with a gradient of water and NaOH solution."}}, "data": [{"smiles": "C/C(=C\\CCP(=O)(O)OP(=O)(O)O)CO", "note": "[CHDMAPP, (2E)-1-hydroxy-2-methylpent-2-enyl-pyrophosphonate]", "values": [{"measurement": "half-life", "setting": "[1]", "value": 62.4, "unit": "h"}, {"measurement": "in vitro activity relative to BrHPP (Phosphostim)", "setting": "[2]", "value": "approximately 100 times"}, {"measurement": "pKa of the weak acidic function", "setting": "[3]; one function, weak pKa", "value": 7.1}, {"measurement": "pKa of the two strong acidic functions", "setting": "[3]; two functions, strong pKa", "value": 2.1}]}, {"smiles": "C/C(=C\\CCP(=O)([O-])OP(=O)(O)O)CO.C/C(=C\\CCP(=O)([O-])OP(=O)(O)O)CO.[Na+].[Na+]", "note": "[CHDMAPP-Na2,0H2O, anhydrous (2E)-1-hydroxy-2-methylpent-2-enyl-pyrophosphonate disodium]", "values": [{"measurement": "hygroscopicity", "setting": "[4]", "value": "hygroscopic"}, {"measurement": "hygroscopicity", "setting": "[4]; listed as anhydrous salt", "value": "somewhat hygroscopic"}, {"measurement": "crystalline structure after storage (XRPD)", "setting": "[5]", "value": "completely modified"}]}, {"smiles": "C/C(=C\\CCP(=O)(O)OP(=O)(O)O)CO", "note": "[CHDMAPP-Na2,1H2O, (2E)-1-hydroxy-2-methylpent-2-enyl-pyrophosphonate disodium monohydrate]", "values": [{"measurement": "temperature up to which compound is stable (onset of endothermic dehydration peak)", "setting": "[6]; listed as monohydrate disodium salt", "value": 115, "unit": "°C"}, {"measurement": "temperature up to which compound is stable (onset of endothermic dehydration peak)", "setting": "[6]; disodium monohydrate", "value": 115.7, "unit": "°C"}, {"measurement": "Purity", "setting": "[7]; storage 5° C., 1 month", "value": 99.1, "unit": "%"}, {"measurement": "Purity", "setting": "[7]; storage 5° C., 3 months", "value": 99.2, "unit": "%"}, {"measurement": "Purity", "setting": "[7]; storage 5° C., 6 months", "value": 98.8, "unit": "%"}, {"measurement": "Purity", "setting": "[7]; storage 5° C., 9 months", "value": 98.9, "unit": "%"}, {"measurement": "Purity", "setting": "[7]; storage 5° C., t 0", "value": 99.3, "unit": "%"}, {"measurement": "Purity", "setting": "[7]; storage 25° C./60% R.H., 1 month", "value": 99.2, "unit": "%"}, {"measurement": "Purity", "setting": "[7]; storage 25° C./60% R.H., 3 months", "value": 99.1, "unit": "%"}, {"measurement": "Purity", "setting": "[7]; storage 25° C./60% R.H., 6 months", "value": 98.7, "unit": "%"}, {"measurement": "Purity", "setting": "[7]; storage 25° C./60% R.H., 9 months", "value": 98.9, "unit": "%"}, {"measurement": "Purity", "setting": "[7]; storage 25° C./60% R.H., t 0", "value": 99.3, "unit": "%"}, {"measurement": "hygroscopicity", "setting": "[4]", "value": "great non-hygroscopicity"}, {"measurement": "spontaneous phase transformation on storage", "setting": "[5]; after more than 6 months, 25° C., 60% RH", "value": "does not observe any spontaneous phase transformation"}, {"measurement": "crystalline structure after storage (XRPD)", "setting": "[5]", "value": "has not been modified"}]}, {"smiles": "CC(=CCCP(=O)([O-])OP(=O)([O-])[O-])CO.[Na+].[Na+].[Na+]", "note": "[trisodium]", "values": [{"measurement": "hygroscopicity", "setting": "[4]", "value": "very hygroscopic solid"}]}]}
